According to ChEMBL document CHEMBL5465560, “Selectivity Literature for EUbOPEN Chemogenomic Library” (2024):

How the values were obtained:
[1] = molecular target: Tyrosine-protein kinase HCK (Homo sapiens) (UniProt P08631); assay: Selectivity interaction (KinomeScan (DiscoverX)) EUB0000666a HCK; conditions: at 10 µM
[2] = molecular target: T1, Ephrin type-A receptor 3 (Homo sapiens) (UniProt P29320); assay: Selectivity interaction (KinomeScan (DiscoverX)) EUB0001079a EPHA3; conditions: at 1 µM
T1 sequence (whole entry): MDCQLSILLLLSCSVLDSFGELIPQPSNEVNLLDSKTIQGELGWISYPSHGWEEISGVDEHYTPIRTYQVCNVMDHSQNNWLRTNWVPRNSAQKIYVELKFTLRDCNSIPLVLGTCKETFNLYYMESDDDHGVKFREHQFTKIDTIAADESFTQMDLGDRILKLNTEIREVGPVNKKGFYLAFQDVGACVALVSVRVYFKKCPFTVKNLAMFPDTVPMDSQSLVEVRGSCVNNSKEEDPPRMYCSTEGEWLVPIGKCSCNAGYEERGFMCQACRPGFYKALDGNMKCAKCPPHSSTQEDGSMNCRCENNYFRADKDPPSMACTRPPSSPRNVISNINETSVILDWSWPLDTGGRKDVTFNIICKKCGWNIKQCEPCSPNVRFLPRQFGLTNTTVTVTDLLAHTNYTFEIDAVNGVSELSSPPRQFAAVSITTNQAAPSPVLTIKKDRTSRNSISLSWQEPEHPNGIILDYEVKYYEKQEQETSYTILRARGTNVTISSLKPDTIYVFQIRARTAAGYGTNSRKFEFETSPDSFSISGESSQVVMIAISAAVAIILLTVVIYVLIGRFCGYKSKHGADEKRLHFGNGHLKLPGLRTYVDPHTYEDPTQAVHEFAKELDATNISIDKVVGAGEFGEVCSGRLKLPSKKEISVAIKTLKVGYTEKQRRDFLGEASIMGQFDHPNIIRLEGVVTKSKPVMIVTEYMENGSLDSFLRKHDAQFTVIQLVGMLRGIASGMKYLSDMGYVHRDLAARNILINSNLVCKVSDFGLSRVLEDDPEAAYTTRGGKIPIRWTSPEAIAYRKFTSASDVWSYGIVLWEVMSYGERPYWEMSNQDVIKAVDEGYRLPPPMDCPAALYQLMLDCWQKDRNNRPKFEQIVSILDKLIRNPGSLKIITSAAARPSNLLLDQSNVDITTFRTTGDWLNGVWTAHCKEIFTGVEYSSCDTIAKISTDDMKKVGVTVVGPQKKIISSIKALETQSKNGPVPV

[3] = molecular target: 5'-AMP-activated protein kinase catalytic subunit alpha-1 (Homo sapiens, UniProt Q13131); assay: Selectivity interaction (Kinase panel (KiNativ target engagement assay in Jurkat cells)) EUB0001635a PRKAA1; assay type: cell-based; conditions: Selectivity number of off-targets 0.0, Selectivity number of targets 233.0, Source Knowledge https://www.sciencedirect.com/science/article/pii/S2451945619300674?via%3Dihub, at 1 µM
[4] = system: Tyrosine-protein kinase ABL1 (Homo sapiens), P00519 [F317L]; assay: Selectivity interaction (Ambit KINOMEscan and KiNATiv profiling in Jurkat cells) EUB0000090b ABL1; assay type: cell-based; conditions: at 1 µM
[5] = molecular target: Serine/threonine-protein kinase Chk2 (Homo sapiens) (UniProt O96017); assay: Selectivity interaction (Ambit KINOMEscan and KiNATiv profiling in Jurkat cells) EUB0000090b CHEK2; assay type: cell-based; conditions: at 1 µM
[6] = molecular target: Serine/threonine-protein kinase PLK1 (Homo sapiens, UniProt P53350); assay: Selectivity interaction (KinomeScan (DiscoverX)) EUB0000655a PLK1; conditions: at 10 µM
[7] = molecular target: Death-associated protein kinase 2 (Homo sapiens) (UniProt Q9UIK4); assay: Selectivity interaction (KinomeScan (DiscoverX)) EUB0000607a DAPK2; conditions: at 10 µM
[8] = system: Epidermal growth factor receptor (Homo sapiens), P00533 [UNDEFINED MUTATION]; assay: Selectivity interaction (KinomeScan (DiscoverX)) EUB0000607a EGFR; conditions: at 10 µM
[9] = molecular target: T2, Serine/threonine-protein kinase Nek9 (Homo sapiens) (UniProt Q8TD19); assay: Selectivity interaction (SelectScreen profiling (Invitrogen)) EUB0000607a NEK9; conditions: at 2 µM
T2 sequence (whole entry): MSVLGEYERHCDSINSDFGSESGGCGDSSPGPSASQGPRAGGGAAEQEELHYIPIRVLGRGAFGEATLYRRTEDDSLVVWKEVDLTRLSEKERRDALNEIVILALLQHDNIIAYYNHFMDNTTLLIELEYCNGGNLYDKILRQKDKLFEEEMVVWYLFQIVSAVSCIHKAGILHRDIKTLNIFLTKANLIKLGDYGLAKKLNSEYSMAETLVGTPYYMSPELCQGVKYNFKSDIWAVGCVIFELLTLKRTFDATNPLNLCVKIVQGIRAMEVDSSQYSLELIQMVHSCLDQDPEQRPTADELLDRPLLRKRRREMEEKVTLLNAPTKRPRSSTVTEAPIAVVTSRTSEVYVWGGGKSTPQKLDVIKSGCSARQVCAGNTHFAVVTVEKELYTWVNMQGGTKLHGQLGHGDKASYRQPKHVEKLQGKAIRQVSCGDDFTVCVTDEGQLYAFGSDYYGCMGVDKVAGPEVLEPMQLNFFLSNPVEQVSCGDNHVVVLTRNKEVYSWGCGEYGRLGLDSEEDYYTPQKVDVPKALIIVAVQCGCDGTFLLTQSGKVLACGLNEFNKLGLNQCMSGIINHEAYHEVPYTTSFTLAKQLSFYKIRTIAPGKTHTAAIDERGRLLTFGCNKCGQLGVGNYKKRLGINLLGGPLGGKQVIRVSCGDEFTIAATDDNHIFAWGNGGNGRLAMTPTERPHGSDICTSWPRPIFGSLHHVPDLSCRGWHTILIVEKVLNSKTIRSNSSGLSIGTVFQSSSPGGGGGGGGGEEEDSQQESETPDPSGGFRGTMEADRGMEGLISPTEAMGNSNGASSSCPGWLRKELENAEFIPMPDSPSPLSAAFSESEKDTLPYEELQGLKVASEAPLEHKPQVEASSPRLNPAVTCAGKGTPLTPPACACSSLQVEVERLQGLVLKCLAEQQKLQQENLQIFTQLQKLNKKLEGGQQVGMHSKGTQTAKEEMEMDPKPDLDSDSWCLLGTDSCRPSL

[10] = molecular target: Cyclin-dependent kinase 2/cyclin A (Homo sapiens) (UniProt P24941+P20248+P78396); assay: Selectivity interaction (Kinase panel (Z-LYTE Assay)) EUB0001632a CDK2; assay type: protein-complex assay; conditions: at 10 µM

Serine/threonine-protein kinase PLK1, sequence (P53350 whole entry): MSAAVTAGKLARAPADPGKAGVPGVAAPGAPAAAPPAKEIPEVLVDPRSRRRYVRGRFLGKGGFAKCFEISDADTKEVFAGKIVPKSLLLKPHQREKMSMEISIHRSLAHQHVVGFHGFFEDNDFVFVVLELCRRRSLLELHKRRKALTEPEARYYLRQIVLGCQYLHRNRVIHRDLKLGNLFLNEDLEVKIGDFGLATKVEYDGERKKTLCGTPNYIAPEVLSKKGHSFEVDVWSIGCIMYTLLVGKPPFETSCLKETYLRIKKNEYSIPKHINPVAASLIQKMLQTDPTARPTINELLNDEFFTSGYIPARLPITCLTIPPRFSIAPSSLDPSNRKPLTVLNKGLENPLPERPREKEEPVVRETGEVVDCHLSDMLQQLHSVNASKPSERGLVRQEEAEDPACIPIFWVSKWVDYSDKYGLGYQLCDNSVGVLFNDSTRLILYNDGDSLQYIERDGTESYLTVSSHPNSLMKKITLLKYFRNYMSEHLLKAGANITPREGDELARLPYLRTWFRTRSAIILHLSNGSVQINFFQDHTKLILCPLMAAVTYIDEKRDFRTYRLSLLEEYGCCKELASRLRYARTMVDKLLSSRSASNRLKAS
5'-AMP-activated protein kinase catalytic subunit alpha-1, sequence (Q13131 whole entry, looked up): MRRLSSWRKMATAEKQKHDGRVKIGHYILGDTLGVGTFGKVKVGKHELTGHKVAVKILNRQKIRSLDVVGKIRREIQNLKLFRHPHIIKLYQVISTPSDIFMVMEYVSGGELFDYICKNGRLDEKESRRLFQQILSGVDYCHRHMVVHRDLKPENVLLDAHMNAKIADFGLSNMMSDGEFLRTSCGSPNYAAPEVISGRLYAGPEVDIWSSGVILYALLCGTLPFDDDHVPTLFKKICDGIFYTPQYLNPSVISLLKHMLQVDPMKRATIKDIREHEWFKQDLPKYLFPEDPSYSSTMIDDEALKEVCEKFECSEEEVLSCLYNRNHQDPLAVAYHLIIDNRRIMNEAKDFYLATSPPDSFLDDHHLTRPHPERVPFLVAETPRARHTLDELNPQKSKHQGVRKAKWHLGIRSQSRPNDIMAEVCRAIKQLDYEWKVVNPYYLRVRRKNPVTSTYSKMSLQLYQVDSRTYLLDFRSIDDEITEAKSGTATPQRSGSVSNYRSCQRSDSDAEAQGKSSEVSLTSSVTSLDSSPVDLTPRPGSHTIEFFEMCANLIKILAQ
Tyrosine-protein kinase ABL1 (Homo sapiens), P00519 [F317L], sequence (P00519 whole entry F317L): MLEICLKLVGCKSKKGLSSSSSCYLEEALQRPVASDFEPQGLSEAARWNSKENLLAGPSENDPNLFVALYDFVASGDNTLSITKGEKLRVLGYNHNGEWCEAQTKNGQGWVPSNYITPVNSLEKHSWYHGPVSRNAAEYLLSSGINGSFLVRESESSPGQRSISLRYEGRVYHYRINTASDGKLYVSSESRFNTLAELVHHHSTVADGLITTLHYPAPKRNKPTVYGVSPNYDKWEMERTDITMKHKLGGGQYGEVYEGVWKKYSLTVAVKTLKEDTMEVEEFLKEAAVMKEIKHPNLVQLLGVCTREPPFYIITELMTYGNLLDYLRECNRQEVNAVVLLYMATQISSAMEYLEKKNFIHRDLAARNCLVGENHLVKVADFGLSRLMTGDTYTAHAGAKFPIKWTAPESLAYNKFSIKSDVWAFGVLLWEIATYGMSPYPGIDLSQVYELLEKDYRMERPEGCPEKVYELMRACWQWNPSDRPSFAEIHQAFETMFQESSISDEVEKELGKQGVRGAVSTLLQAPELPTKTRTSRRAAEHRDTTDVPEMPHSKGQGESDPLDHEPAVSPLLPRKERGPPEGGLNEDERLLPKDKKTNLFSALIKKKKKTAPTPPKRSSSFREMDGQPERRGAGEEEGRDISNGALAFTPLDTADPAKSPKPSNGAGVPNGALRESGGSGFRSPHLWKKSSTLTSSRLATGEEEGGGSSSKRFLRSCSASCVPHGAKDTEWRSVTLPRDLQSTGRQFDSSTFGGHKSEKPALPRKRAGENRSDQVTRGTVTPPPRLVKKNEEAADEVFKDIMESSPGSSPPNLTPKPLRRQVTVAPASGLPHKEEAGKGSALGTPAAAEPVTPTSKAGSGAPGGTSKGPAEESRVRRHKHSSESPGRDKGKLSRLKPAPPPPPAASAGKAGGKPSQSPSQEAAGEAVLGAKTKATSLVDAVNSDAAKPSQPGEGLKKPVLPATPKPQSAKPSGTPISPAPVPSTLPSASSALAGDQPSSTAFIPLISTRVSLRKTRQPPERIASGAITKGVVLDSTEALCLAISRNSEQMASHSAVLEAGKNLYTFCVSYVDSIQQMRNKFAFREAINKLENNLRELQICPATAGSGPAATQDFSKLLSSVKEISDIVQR
Serine/threonine-protein kinase Chk2 (Homo sapiens), sequence (O96017 whole entry): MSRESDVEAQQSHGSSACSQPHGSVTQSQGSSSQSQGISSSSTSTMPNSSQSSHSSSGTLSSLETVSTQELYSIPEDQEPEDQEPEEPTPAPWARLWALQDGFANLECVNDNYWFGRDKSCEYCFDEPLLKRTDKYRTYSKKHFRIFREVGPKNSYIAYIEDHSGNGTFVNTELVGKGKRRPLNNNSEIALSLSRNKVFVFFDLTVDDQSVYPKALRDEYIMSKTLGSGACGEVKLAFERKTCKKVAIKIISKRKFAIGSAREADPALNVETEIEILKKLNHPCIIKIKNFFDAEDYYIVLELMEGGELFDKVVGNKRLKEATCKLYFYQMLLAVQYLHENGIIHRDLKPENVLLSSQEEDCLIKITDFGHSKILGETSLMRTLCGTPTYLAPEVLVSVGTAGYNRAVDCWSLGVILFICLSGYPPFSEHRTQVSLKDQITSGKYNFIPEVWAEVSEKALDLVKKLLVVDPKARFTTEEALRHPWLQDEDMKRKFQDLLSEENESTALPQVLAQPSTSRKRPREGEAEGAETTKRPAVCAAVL
Epidermal growth factor receptor (Homo sapiens), P00533 [UNDEFINED MUTATION], sequence (P00533 whole entry, looked up, change not shown): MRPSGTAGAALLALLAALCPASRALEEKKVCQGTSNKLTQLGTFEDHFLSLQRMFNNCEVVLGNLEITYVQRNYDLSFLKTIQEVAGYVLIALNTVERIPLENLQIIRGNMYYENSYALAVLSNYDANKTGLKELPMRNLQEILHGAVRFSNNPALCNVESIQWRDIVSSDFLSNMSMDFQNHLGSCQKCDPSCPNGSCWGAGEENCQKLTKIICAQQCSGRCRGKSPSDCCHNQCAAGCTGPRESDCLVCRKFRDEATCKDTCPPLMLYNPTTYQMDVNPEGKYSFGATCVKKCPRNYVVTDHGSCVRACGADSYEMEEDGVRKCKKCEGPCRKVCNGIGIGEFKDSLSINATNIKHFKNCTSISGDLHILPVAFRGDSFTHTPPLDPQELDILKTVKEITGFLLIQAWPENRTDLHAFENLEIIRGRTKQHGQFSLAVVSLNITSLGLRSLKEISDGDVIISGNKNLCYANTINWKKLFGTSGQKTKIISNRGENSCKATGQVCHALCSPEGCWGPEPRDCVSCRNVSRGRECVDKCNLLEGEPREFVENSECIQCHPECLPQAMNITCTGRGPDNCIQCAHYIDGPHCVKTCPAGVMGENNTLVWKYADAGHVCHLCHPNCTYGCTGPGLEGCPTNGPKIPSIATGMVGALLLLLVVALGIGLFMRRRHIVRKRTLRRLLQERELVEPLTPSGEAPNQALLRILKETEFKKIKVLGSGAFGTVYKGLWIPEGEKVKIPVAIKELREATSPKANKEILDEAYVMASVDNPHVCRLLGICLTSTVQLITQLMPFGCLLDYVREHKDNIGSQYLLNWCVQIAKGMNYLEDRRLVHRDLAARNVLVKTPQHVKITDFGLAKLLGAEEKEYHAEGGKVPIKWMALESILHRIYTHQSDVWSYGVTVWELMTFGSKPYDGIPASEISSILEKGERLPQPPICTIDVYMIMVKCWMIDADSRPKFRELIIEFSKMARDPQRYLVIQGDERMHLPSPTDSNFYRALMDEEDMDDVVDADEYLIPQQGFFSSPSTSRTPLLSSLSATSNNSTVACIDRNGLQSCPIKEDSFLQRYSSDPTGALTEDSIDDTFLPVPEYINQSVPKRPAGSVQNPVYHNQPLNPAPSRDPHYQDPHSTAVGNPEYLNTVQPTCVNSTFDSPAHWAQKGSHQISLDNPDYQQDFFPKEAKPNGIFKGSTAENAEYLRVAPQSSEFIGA
Tyrosine-protein kinase HCK (Homo sapiens), sequence (P08631 2-526 limits assumed): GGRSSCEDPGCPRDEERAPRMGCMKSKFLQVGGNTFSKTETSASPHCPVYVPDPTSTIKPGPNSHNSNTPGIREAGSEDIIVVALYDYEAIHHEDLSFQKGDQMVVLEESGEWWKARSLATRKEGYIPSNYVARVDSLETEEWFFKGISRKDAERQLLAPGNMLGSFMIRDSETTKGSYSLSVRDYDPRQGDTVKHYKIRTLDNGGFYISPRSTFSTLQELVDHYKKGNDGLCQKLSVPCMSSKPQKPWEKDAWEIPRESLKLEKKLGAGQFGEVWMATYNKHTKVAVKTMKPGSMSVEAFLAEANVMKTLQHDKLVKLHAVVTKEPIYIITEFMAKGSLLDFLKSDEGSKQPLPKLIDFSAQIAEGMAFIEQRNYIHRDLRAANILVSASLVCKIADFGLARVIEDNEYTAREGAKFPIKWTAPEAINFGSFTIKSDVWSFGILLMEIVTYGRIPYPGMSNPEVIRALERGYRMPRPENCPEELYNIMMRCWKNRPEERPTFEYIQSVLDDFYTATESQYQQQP
Death-associated protein kinase 2 (Homo sapiens), sequence (Q9UIK4 whole entry, looked up): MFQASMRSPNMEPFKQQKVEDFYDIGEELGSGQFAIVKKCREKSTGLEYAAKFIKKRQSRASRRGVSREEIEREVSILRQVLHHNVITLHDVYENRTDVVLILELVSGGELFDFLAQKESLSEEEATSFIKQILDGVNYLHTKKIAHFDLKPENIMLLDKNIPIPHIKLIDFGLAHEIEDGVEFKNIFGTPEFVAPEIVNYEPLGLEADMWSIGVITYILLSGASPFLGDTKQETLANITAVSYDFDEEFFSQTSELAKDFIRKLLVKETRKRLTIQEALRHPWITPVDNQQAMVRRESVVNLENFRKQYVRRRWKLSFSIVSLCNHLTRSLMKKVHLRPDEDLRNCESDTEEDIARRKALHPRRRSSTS

Structure (SMILES): O=C(NOC[C@H](O)CO)c1ccc(F)c(F)c1Nc1ccc(I)cc1F
- % of control [1]: 100%

Structure (SMILES): Nc1cnc(N2CCc3cc(S(=O)(=O)Nc4c(F)cc(Cl)cc4F)cc(N4CCCC4=O)c32)nc1 [TP-020n]
- % of control [2]: 78%

Structure (SMILES): C=CC(=O)Nc1ccc(C(=O)Nc2[nH]nc3c2CN(C(=O)N[C@H](CN(C)C)c2ccccc2)C3(C)C)cc1
- % of engagement [3]: -51.7%

Structure (SMILES): CN(C)C/C=C/C(=O)Nc1ccc(C(=O)N2CCCC(Nc3ncc(Cl)c(-c4c[nH]c5ccccc45)n3)C2)cc1 (stereo not given)
- % of control [4]: 100%
- % of control [5]: 81%

Structure (SMILES): CN(C)CCOc1ccc(-c2nc(-c3ccncc3)c(-c3ccc4c(c3)CC/C4=N\O)[nH]2)cc1
- % of control [6]: 100%

Structure (SMILES): CNC(=O)Nc1ccc(-c2nc(N3CC4CCC(C3)O4)c3cnn(C4CCC5(CC4)OCCO5)c3n2)cc1
- % of control [7]: 100%
- % of control [8]: 52%
- % of inhibition [9]: -2%

Structure (SMILES): Cn1cc(-n2cnc3c(NCc4nc5cc(Cl)c(Cl)cc5[nH]4)nc(N4CCOCC4)nc32)cn1
- % of control [10]: 3.2%
